{"source": "patent US12168646B2", "about": "“Aryl hydrocarbon receptor agonists and uses thereof” (NEXYS THERAPEUTICS, INC., priority 2022, dated 2024)", "key": {"[1]": {"experiment": "Stability in human feces (azo reduction in feces homogenate)", "type": "in vitro ADME", "conditions": "pH 6.8, 37° C., under nitrogen", "experimental": "Biological Data 2: Stability in Human Feces\nAccordingly, selected azo compounds of the invention were exposed to human feces under conditions suitable to promote azo reduction.\nThe human feces from two donors were homogenized in isotonic phosphate buffered saline (pH 6.8) with a ratio of 1:10 (w/v). The tubes were sealed using sealing film. Test article was dissolved in isotonic phosphate buffer (pH 6.8) to form a working solution of 20 μM (if the solubility allows). An aliquot of working solution (50 μL) was added to the human feces homogenate (50 μL) for each time point (0, 1, 2, 4, 6 and 24 h) in duplicate and placed under nitrogen for about 1 minute in order to exhaust air, and then incubated at 37° C. After incubation at each pre-set time point, 1000 μL acetonitrile containing internal standard w as added to each tube to quench reaction. Samples were vortexed and centrifuged at 3700 rpm for 10 min and the supernatant was transferred for analysis (and diluted where necessary). The concentrations of test article and its metabolite (example 3) in the supernatants were determined using LC-MS/MS method. Sulfasalazine was used as a positive control. All incubations were performed in duplicate."}, "AhR": {"target": "T1, AhR (Homo sapiens, UniProt P35869)", "T1 construct": "HT29-Lucia AhR cells were purchased from Invivogen (cat #ht21-ahr); host or cells: HT29-Lucia AhR cells", "T1 sequence (P35869 11-848)": "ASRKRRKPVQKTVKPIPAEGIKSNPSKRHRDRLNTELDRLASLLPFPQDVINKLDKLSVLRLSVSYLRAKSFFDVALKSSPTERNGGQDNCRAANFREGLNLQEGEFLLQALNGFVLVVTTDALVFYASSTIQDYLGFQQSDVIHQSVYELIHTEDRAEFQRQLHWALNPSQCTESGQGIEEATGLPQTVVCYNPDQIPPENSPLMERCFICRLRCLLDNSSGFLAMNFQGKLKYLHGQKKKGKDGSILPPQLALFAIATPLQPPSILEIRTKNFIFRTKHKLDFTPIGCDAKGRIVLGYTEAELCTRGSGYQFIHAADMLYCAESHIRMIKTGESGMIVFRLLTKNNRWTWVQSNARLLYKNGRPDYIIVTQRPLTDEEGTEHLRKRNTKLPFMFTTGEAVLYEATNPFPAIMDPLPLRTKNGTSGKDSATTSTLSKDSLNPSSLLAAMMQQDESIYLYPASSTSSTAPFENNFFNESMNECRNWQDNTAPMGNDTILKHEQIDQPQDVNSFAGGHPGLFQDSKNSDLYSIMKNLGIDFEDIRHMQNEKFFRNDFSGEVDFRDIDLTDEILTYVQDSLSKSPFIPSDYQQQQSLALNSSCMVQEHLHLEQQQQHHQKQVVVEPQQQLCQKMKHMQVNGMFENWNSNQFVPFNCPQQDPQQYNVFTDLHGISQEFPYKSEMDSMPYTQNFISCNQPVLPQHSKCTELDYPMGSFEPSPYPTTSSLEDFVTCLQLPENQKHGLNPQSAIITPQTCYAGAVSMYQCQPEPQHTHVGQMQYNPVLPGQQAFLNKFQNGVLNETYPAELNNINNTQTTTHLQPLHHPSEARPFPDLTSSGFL", "experiment": "HT29 AhR Reporter Assay (HT29-Lucia AhR cells, QUANTI-Luc luminescence)", "type": "cell-based", "conditions": "HT29-Lucia AhR cells", "experimental": "Biological Data 1: HT29 AhR Reporter Assay HT29-Lucia AhR cells were purchased from Invivogen (cat #ht21-ahr). […] The cell suspension was removed from growth medium and rinsed gently with pre-warmed PBS (10 mL). Pre-warmed Trypsin (1 mL) was added, and cells were held at 30° C. for about 5 min and then detached by pipette. The dissociated cell clumps were gently pipetted up and down. The cells were resuspended in pre-warmed detection medium (DMEM, 10% FBS (30 min at 56° C.), 100 U/ml penicillin, 100 μg/ml streptomycin, and test article or vehicle) and counted. A cell suspension of ˜500,000 cells/mL in Detection medium was prepared. […] Samples (20 μL/well) were pipetted into a 96-well white (opaque), and QUANTI-Luc™ (50 μL/well) was added. The plate was gently tapped and then read in a luminometer (0.1 s reading time)."}}, "data": [{"compound": "O=C(O)c1cc(/N=N/c2cccc(-c3ccnc(Nc4ccc(C(F)(F)F)cc4)n3)c2)ccc1O", "note": "[Example 27, (E)-2-hydroxy-5-((3-(2-((4-(trifluoromethyl)phenyl)amino)pyrimidin-4-yl)phenyl)diazenyl)benzoic acid]", "values": [{"measurement": "% of parent remaining after incubation for 6 h", "setting": "[1]", "value": 74, "unit": "%"}]}, {"compound": "O=C(O)c1cc(/C=C/c2ccccc2-c2ccnc(Nc3ccc(C(F)(F)F)cc3)n2)ccc1O", "note": "[Example 59, (E)-2-hydroxy-5-(2-(2-((4-(trifluoromethyl)phenyl)amino)pyrimidin-4-yl)styryl)benzoic acid, reference compound]", "values": [{"measurement": "% of parent remaining after incubation for 6 h", "setting": "[1]", "value": 94, "unit": "%"}, {"measurement": "EC50", "setting": "AhR; 18-24 h, EC50 = concentration to reach half of maximum efficacy of reference compound VAF347", "value": 1420, "unit": "nM"}, {"measurement": "Emax", "setting": "AhR; % efficacy = 100%*(TA-BG)/(Ref-BG), Ref = VAF347, read-out: HT29 AhR % efficacy", "value": 74, "unit": "%"}]}, {"compound": "O=S(=O)(O)c1cc(/N=N/c2ccccc2-c2ccnc(Nc3ccc(C(F)(F)F)cc3)n2)ccc1O", "note": "[Example 50, (E)-2-hydroxy-5-((2-(2-((4-(trifluoromethyl)phenyl)amino)pyrimidin-4-yl)phenyl)diazenyl)benzenesulfonic acid]", "values": [{"measurement": "% of parent remaining after incubation for 6 h", "setting": "[1]", "value": 10, "unit": "%"}]}, {"compound": "O=C(O)c1cc(O)ccc1/N=N/c1ccccc1-c1ccnc(Nc2ccc(C(F)(F)F)cc2)n1", "note": "[Example 38, (E)-5-hydroxy-2-((2-(2-((4-(trifluoromethyl)phenyl)amino)pyrimidin-4-yl)phenyl)diazenyl)benzoic acid]", "values": [{"measurement": "% of parent remaining after incubation for 6 h", "setting": "[1]", "value": 4, "unit": "%"}]}, {"compound": "O=C(O)c1cc(/N=N/c2ccccc2-c2ccnc(Nc3ccc(C(F)(F)F)cc3)n2)cc(C(=O)O)c1O", "note": "[Example 37, (E)-2-Hydroxy-5-((2-(2-((4-(trifluoromethyl)phenyl)amino)pyrimidin-4-yl)phenyl)diazenyl)isophthalic acid]", "values": [{"measurement": "% of parent remaining after incubation for 6 h", "setting": "[1]", "value": 69, "unit": "%"}]}, {"compound": "Oc1ccc(/N=N/c2ccccc2-c2ccnc(Nc3ccc(C(F)(F)F)cc3)n2)cc1", "note": "[Example 33, (E)-4-((2-(2-((4-(trifluoromethyl)phenyl)amino)pyrimidin-4-yl)phenyl)diazenyl)phenol]", "values": [{"measurement": "% of parent remaining after incubation for 6 h", "setting": "[1]", "value": 59, "unit": "%"}]}, {"compound": "O=C(O)c1ccc(/N=N/c2ccccc2-c2ccnc(Nc3ccc(C(F)(F)F)cc3)n2)c(O)c1", "note": "[Example 40, (E)-3-hydroxy-4-((2-(2-((4-(trifluoromethyl)phenyl)amino)pyrimidin-4-yl)phenyl)diazenyl)benzoic acid]", "values": [{"measurement": "% of parent remaining after incubation for 6 h", "setting": "[1]", "value": 22, "unit": "%"}]}]}
